Series [1] concerns the target T1, human-derived PPARγ ligand-binding domain (Homo sapiens, UniProt P37231).
T1 construct: expressed in transfected cells; host or cells: CV-1 cells (African green monkey kidney-derived)
T1 sequence (P37231 238-503 limits assumed): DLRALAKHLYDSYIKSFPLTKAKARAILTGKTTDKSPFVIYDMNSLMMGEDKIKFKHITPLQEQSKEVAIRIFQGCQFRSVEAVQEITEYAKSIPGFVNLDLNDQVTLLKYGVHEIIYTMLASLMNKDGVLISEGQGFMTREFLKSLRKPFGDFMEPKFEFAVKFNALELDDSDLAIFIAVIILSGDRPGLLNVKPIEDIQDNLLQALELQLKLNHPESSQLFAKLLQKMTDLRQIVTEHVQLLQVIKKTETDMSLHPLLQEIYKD
Briefly: PPARγ activation test (GAL4 chimera / luciferase reporter in CV-1 cells). Type of series: cell-based. The conditions noted are these: for PPARγ ligand activity, ratio (%) of the activity of each synthesized product to the activity of the control substance (DMSO): control = 100. Here is the method:
A measurement method for the PPAR activation test in Examples below were conducted as described below.
(1) PPARγ Activation Test
A plasmid pM-PPARγ for the expression of a chimeric protein composed of a human-derived PPARγ ligand-binding domain and a DNA-binding domain of a yeast-derived GAL4 transcription factor, and a plasmid p4×UASg-tk-luc containing a Cypridina-derived luciferase structural gene linked downstream of a GAL4 responsive sequence designed such that its expression was controlled by this chimeric protein, were prepared. Also, a Renilla-derived luciferase expression plasmid pRL-CMV having a viral expression promoter for constitutive intracellular expression was prepared as a plasmid for the correction of transfection efficiency. On the other hand, DMEM containing 10% FBS was used as a medium for CV-1 cells (African green monkey kidney-derived). The CV-1 cells were seeded at 4.5×10^5 cells over a 100-mm Petri dish and cultured in an incubator at 37° C. in a 5% CO2 environment.
(1-2) Transformation of CV-1 Cell
The CV-1 cells thus cultured for 24 hours were cotransfected with 2.0 μg of pM-PPARγ, 4.0 μg of p4×UASg-tk-luc, and 0.04 μg of pRL-CMV to transform the CV-1 cells. The transformation was carried out by the liposome method using LipofectAMINE(R) Reagent (a product of Invitrogen Corp.). After the transformation operation, the cells were cultured at 37° C. for 3.5 hours in a 5% CO2 environment.
(1-3) Addition of Test Sample
The CV-1 cells thus incubated were recovered by trypsin treatment, and […] thereof was inoculated at a concentration of 1×10^5 cells/mL to a 96-well plate. Each test sample was diluted with DMEM containing 4% FBS to adjust its concentration to twice the final concentration, and […] thereof was added to the 96-well plate mentioned above. DMSO was used as a control substance. After the addition of the test sample or the control substance (DMSO), the mixture was incubated at 37° C. for 24 hours in a 5% CO2 environment.
(1-4) Measurement of Luciferase Activity
The luciferase activity was measured using Dual-Luciferase(R) Reporter Assay System (a product of Promega K.K.). The culture solution was removed from the 96-well plate. The cells were washed with PBS(−), and moisture was removed therefrom using a paper towel. To the cells, […] of a cell lysis solution (Passive Lysis Buffer) was added, and the 96-well plate was shaken for 15 minutes. The cell extract was transferred at […] to a 96-well luminoplate. A luminescent substrate solution was added thereto at […]. The luminescence intensity based on the luciferase was measured for a measurement time set to 10 seconds using a luminometer (Micro Lumat Plus, a product of Berthold Japan Co., Ltd.).
The PPARγ-activating effect of the test sample was evaluated on the basis of a ratio (%) relative to controls. In order to correct transfection efficiency, the measured Cypridina luciferase activity value (A) was divided by the measured Renilla luciferase activity value (B) to determine a value (A/B). The average A/B value of the control group was calculated and defined as 100. The A/B value of the test sample was calculated, and the ratio (%) of this value to the average value of the controls was used as the ability of the test sample to activate PPARγ.
Their PPARγ ligand activity was measured in the same way as in Example 7 except that the incubation time after the test sample addition was set to 48 hours. The values shown in the table below and the ordinate of the drawing depict the ratio (%) of the activity of each synthesized product to the activity of the control substance (DMSO). In Table 1 and FIG. 13, these various butenolide compounds used as test samples were each indicated by the functional group of R^2 in the formula (1).

Series [2] deals with UCP-1 gene. The experiment in a line: Measurement of UCP-1 gene expression level in mesenchymal cell line 10T1/2. Type of series: cell-based. The conditions noted are these: 10T1/2 cells; 100 μg/mL; 24 hours; FIG. 11. An excerpt:
Mitochondrial uncoupling proteins (or uncoupling proteins: UCPs) have the function of uncoupling oxidative phosphorylation reaction in the mitochondrial inner membrane to consume the energy as heat. Among them, UCP-1 is specifically expressed in brown fat cells that produce heat by burning fat. In recent years, particular synthetic PPARγ agonists have been reported to convert white fat cells working to store fat to brown fat cells working to burn fat (H. Ohno et al, Cell metabolism, 2012, Vol. 15, pp. 395-404).
The test was conducted as follows: a mesenchymal cell line 10T1/2 was inoculated at 1×10^4 cells/mL to a 12-well plate. The cells were cultured until confluent. Then, the fraction of peak 5 (5H4PB) was added thereto such that its final concentration was 100 μg/mL. DMSO was used as a control substance. Twenty-four hours after the sample addition, mRNA was recovered from the cells, and the mRNA level was determined. The mRNA quantification was carried out using LightCycler(R) (Roche Applied Science). The ordinate of the drawing depicts the ratio of the UCP-1 expression level for the fraction of peak 5 to the UCP-1 expression level for the control substance (DMSO). […] The increased expression level of UCP-1 indicates enhanced heat production from lipids.

Series [3] deals with liver (hepatocytes) of C57BL/6J mice fed with a high-fat diet. The experiment in a line: Influence of administration on liver tissue (histopathological examination). The series is classed as in vivo, mouse. The conditions noted are these: 12 weeks, high-fat diet. An excerpt:
In Example 13, the liver was collected during the collection of fat tissues from each individual and histopathologically examined. The findings from the histopathological examination were as described below.
For the individuals of the normal group, the deposition of fat droplets was not observed in the hepatocytes, whereas only the very mild infiltration of inflammatory cells was observed.

The mark [4] stands for this setting: test sample concentration 0.032 μg/mL, incubation 48 hours.
[5] abbreviates: test sample concentration 0.08 μg/mL, incubation 48 hours.
Setting [6] is: test sample concentration 0.16 μg/mL, incubation 48 hours.
[7] abbreviates: test sample concentration 0.4 μg/mL, incubation 48 hours.
Setting [8] is: test sample concentration 0.8 μg/mL, incubation 48 hours, * = twice or more vs control, p<0.05.
Setting [9] is: test sample concentration 2 μg/mL, incubation 48 hours, * = twice or more vs control, p<0.05.
Where [10] appears, read: test sample concentration 4 μg/mL, incubation 48 hours, * = twice or more vs control, p<0.05.

“Also recorded” adds a separate entry of the source.

As to `Cc1ccc(C2=CC(=O)OC2O)cc1` (stereo not drawn), in series [1] (Example 8, incubation 48 hours, Table 1 and FIG. 13, listed as 5-hydroxy-4-(4-methylphenyl)butenolide), the “PPARγ ligand activity of butenolide compounds (in words)” value is recorded as “high activity in a low concentration range; also recorded: highest activity”. The “PPARγ ligand activity, ratio (%) of the activity of each synthesized product to the activity of the control substance (DMSO)” value (“PPARγ ligand activity, ratio (%)” below) is on record as 170% in series [1] (setting [4]); 110% in series [1] (setting [5]); 120% in series [1] (setting [6]); 180% in series [1] (setting [7]); 260* % in series [1] (setting [8]); 560* % in series [1] (setting [9]). Moreover, the “PPARγ ligand activity, ratio (%)” value in series [1] (setting [10]) is recorded as 710* %.

For `O=C1C=C(c2ccccc2)C(O)O1` (single isomer, unassigned) [5H4PB, 5-hydroxy-4-phenylbutenolide], the “PPARγ ligand activity of the fraction of peak 5” value in series [1] (50 μg/mL and 100 μg/mL, FIG. 9) is “elevate in a concentration-dependent manner”. Also, in series [1] (final concentration 100 μg/mL, FIG. 7), the “PPARγ ligand activity of peak fractions” value is on record as “distinct PPARγ ligand activity”. In series [2], the “expression level of UCP-1 (mRNA) relative to control substance (DMSO)” value is “effect of elevating the expression level of UCP-1”.

Turning to `O=C1C=C(Cc2ccccc2)C(O)O1` (stereo not drawn) [Benzyl, 5-hydroxy-4-benzylbutenolide], the “PPARγ ligand activity, ratio (%)” value is reported as 120% in series [1] (setting [4]); 220% in series [1] (setting [5]); 110% in series [1] (setting [6]); 130% in series [1] (setting [7]); 170% in series [1] (setting [8]); 310* % in series [1] (setting [9]). Besides, the “PPARγ ligand activity, ratio (%)” value in series [1] (setting [10]) is listed as 360* %.

For the molecule `Cc1ccc(CC2=CC(=O)OC2O)cc1` (stereo not drawn) [Methylbenzyl, 5-hydroxy-4-(4-methylbenzyl)butenolide], the “PPARγ ligand activity, ratio (%)” value in series [1] (setting [4]) is 130%; in series [1] (setting [5]), 110%; in series [1] (setting [6]) it was 120%; in series [1] (setting [7]), 130%; in series [1] (setting [8]) it was 140%; in series [1] (setting [9]), 130%. Besides, the “PPARγ ligand activity, ratio (%)” value is on record as 240* % in series [1] (setting [10]); 340* % in series [1] (test sample concentration 10 μg/mL, incubation 48 hours, * = twice or more vs control, p<0.05); 520* % in series [1] (test sample concentration 20 μg/mL, incubation 48 hours, * = twice or more vs control, p<0.05).

For the molecule `CN(CCOc1ccc(CC2SC(=O)NC2=O)cc1)c1ccccn1` (stereo not drawn) [rosiglitazone, reference compound], the “deposition of fat droplets in the hepatocytes” value in series [3] (0.037 μg/kg/day) is “very mild to mild depositions”. In series [3] (10 mg/kg/day), the “deposition of fat droplets in the hepatocytes” value is “moderate deposition” and the swelling of hepatocytes entry is listed as “mildly swollen”.

For the origin of these results see patent US9943501B2 (KOJUN JAPAN CO., LTD., priority 2014, dated 2018).
